Measured values taken from the NIST ThermoML archive (doi:10.1021/acs.jced.7b00176).
Numbers after ± are expanded uncertainties.

What was measured:
[1] = Liquid, Vibrating tube method
[2] = xn = mol fraction of the nth substance listed; settings: Liquid, Vibrating tube method, x1 = 1

CCCCO [butan-1-ol]
[1]
Settings | mass density [kg/m3]
283.63 K, 80 kPa | 817.19 ± 0.61
283.63 K, 5000 kPa | 820.7 ± 0.62
283.64 K, 1000 kPa | 817.88 ± 0.62
283.64 K, 40000 kPa | 842.03 ± 0.69
283.64 K, 60000 kPa | 852.39 ± 0.74
283.64 K, 100000 kPa | 870.33 ± 0.83
283.65 K, 30000 kPa | 836.43 ± 0.67
283.65 K, 80000 kPa | 861.72 ± 0.79
283.66 K, 10000 kPa | 824.01 ± 0.63
283.66 K, 20000 kPa | 830.39 ± 0.65
303.45 K, 100 kPa | 801.81 ± 0.62
303.45 K, 1000 kPa | 802.54 ± 0.62
303.46 K, 5000 kPa | 805.65 ± 0.62
303.46 K, 10000 kPa | 809.35 ± 0.63
303.47 K, 20000 kPa | 816.29 ± 0.65
303.47 K, 30000 kPa | 822.84 ± 0.68
303.47 K, 40000 kPa | 828.87 ± 0.7
303.47 K, 60000 kPa | 839.95 ± 0.76
303.48 K, 80010 kPa | 849.82 ± 0.81
303.48 K, 100000 kPa | 858.94 ± 0.86
323.25 K, 1000 kPa | 787.19 ± 0.62
323.26 K, 100 kPa | 786.36 ± 0.62
323.26 K, 5000 kPa | 790.63 ± 0.63
323.27 K, 10000 kPa | 794.68 ± 0.64
323.27 K, 20000 kPa | 802.33 ± 0.66
323.27 K, 30000 kPa | 809.41 ± 0.68
323.28 K, 40000 kPa | 816 ± 0.71
323.28 K, 60000 kPa | 827.77 ± 0.78
323.28 K, 80000 kPa | 838.31 ± 0.84
323.28 K, 100000 kPa | 847.65 ± 0.89
343.03 K, 100 kPa | 769.54 ± 0.62
343.03 K, 1000 kPa | 770.45 ± 0.62
343.04 K, 5000 kPa | 774.32 ± 0.63
343.04 K, 10000 kPa | 778.88 ± 0.64
343.05 K, 20000 kPa | 787.37 ± 0.66
343.05 K, 30000 kPa | 795.06 ± 0.69
343.05 K, 40000 kPa | 802.13 ± 0.73
343.05 K, 60000 kPa | 814.83 ± 0.8
343.05 K, 80000 kPa | 826.08 ± 0.86
343.05 K, 100000 kPa | 836.2 ± 0.92
362.68 K, 100 kPa | 752.67 ± 0.62
362.68 K, 1000 kPa | 753.64 ± 0.62
362.68 K, 30000 kPa | 781.04 ± 0.7
362.69 K, 5000 kPa | 758.03 ± 0.63
362.69 K, 10000 kPa | 763.16 ± 0.64
362.69 K, 20000 kPa | 772.56 ± 0.67
362.7 K, 40000 kPa | 788.67 ± 0.74
362.7 K, 60000 kPa | 802.36 ± 0.82
362.71 K, 80000 kPa | 814.44 ± 0.89
362.71 K, 100000 kPa | 825.18 ± 0.96

CCCCO [butan-1-ol] + COCCOCCOC
[2]
Settings | mass density [kg/m3]
283.63 K, 80 kPa | 817.19 ± 0.61
283.63 K, 5000 kPa | 820.7 ± 0.62
283.64 K, 1000 kPa | 817.88 ± 0.62
283.64 K, 40000 kPa | 842.03 ± 0.69
283.64 K, 60000 kPa | 852.39 ± 0.74
283.64 K, 100000 kPa | 870.33 ± 0.83
283.65 K, 30000 kPa | 836.43 ± 0.67
283.65 K, 80000 kPa | 861.72 ± 0.79
283.66 K, 10000 kPa | 824.01 ± 0.63
283.66 K, 20000 kPa | 830.39 ± 0.65
303.45 K, 100 kPa | 801.81 ± 0.62
303.45 K, 1000 kPa | 802.54 ± 0.62
303.46 K, 5000 kPa | 805.65 ± 0.62
303.46 K, 10000 kPa | 809.35 ± 0.63
303.47 K, 20000 kPa | 816.29 ± 0.65
303.47 K, 30000 kPa | 822.84 ± 0.68
303.47 K, 40000 kPa | 828.87 ± 0.7
303.47 K, 60000 kPa | 839.95 ± 0.76
303.48 K, 80010 kPa | 849.82 ± 0.81
303.48 K, 100000 kPa | 858.94 ± 0.86
323.25 K, 1000 kPa | 787.19 ± 0.62
323.26 K, 100 kPa | 786.36 ± 0.62
323.26 K, 5000 kPa | 790.63 ± 0.63
323.27 K, 10000 kPa | 794.68 ± 0.64
323.27 K, 20000 kPa | 802.33 ± 0.66
323.27 K, 30000 kPa | 809.41 ± 0.68
323.28 K, 40000 kPa | 816 ± 0.71
323.28 K, 60000 kPa | 827.77 ± 0.78
323.28 K, 80000 kPa | 838.31 ± 0.84
323.28 K, 100000 kPa | 847.65 ± 0.89
343.03 K, 100 kPa | 769.54 ± 0.62
343.03 K, 1000 kPa | 770.45 ± 0.62
343.04 K, 5000 kPa | 774.32 ± 0.63
343.04 K, 10000 kPa | 778.88 ± 0.64
343.05 K, 20000 kPa | 787.37 ± 0.66
343.05 K, 30000 kPa | 795.06 ± 0.69
343.05 K, 40000 kPa | 802.13 ± 0.73
343.05 K, 60000 kPa | 814.83 ± 0.8
343.05 K, 80000 kPa | 826.08 ± 0.86
343.05 K, 100000 kPa | 836.2 ± 0.92
362.68 K, 100 kPa | 752.67 ± 0.62
362.68 K, 1000 kPa | 753.64 ± 0.62
362.68 K, 30000 kPa | 781.04 ± 0.7
362.69 K, 5000 kPa | 758.03 ± 0.63
362.69 K, 10000 kPa | 763.16 ± 0.64
362.69 K, 20000 kPa | 772.56 ± 0.67
362.7 K, 40000 kPa | 788.67 ± 0.74
362.7 K, 60000 kPa | 802.36 ± 0.82
362.71 K, 80000 kPa | 814.44 ± 0.89
362.71 K, 100000 kPa | 825.18 ± 0.96
